Experimental findings from patent publication US20250333418A1, “PURINE COMPOUNDS, COMPOSITIONS COMPRISING THEM AND USES THEREOF” (Novo Nordisk A/S, priority 2022, published 2025) are described below.

In experiment [1] the target is T1, human CB1 receptor (Homo sapiens, UniProt P21554).
T1 construct: expressed in transfected cells; host or cells: HEK293
Briefly: bioSensAll GAPL-Gi2 BRET biosensor assay in HEK293 cells transfected with hCB1; test compound added before EC75-80 of agonist CP55,940 (0.1 nM). Particulars: vs CP55,940 0.1 nM (EC75-80), read-out: CB1 wt Gi2 IC50. The class given is cell-based. On the procedure:
(§1) Using polyethylenimine (PEI) transfection agent, HEK293 cells were transfected in suspension with the human CB1 receptor and one of the following bioSensAll® assays: GAPL-Gi2, or β-arrestin plasma membrane (PM) translocation biosensor (+GRK2). Cells were directly seeded in 96-well plates immediately following transfection.
(§2) Cells were incubated with coelenterazine (luciferase substrate) and different test compounds prior to the measurement of BRET signals.
(§3) Used in this project are i) Gα plasma membrane (GAPL) biosensors and the ii) β-arrestin plasma membrane translocation biosensor.
i) GAPL sensors are used to monitor the activation of heterotrimeric G proteins at the plasma membrane upon receptor stimulation. Specifically, these multimolecular BRET sensors detect the plasma membrane recruitment of proteins that interact with active Gα subunits in a G protein family-selective manner. G protein activation following receptor stimulation generally leads to an increase in the BRET signal.
(§4) HEK293 cells were maintained in Dulbecco's Modified Eagle Medium (DMEM) (Wisent; cat #319-030-CL: without sodium pyruvate, with 4.5 g/L glucose, without L-glutamine) supplemented with 1% penicillin-streptomycin (Wisent; cat #450-201-EL) and 2 or 10% fetal bovine serum (Wisent cat #090150).
(§5) HEK293 cells were co-transfected with hCB1 and one of the above-listed bioSensAll® assays. For each transfection condition: • the total amount of transfected DNA was kept constant at 1 μg per mL of cell culture to be transfected; whenever necessary, salmon sperm DNA (Invitrogen, cat #15632011) was used as ‘carrier’ DNA to supplement plasmid DNA (i.e., biosensor and receptor); • the PEI (polyethylenimine 25 kDa linear, PolyScience, cat #23966) to DNA ratio (ug:ug) was fixed at 3:1.
(§6) Transfections were carried out as follows: • DNA and PEI were first diluted separately in 150 mM NaCl. The volume of the diluent in each tube corresponds to 5% of the cell culture volume to be transfected. • Once DNA and PEI were diluted, the PEI-containing solution was added to the DNA solution and the DNA/PEI mixture immediately vortexed for 5 seconds. • The DNA/PEI mixture was incubated for at least 20 minutes at room temperature to allow for the formation of DNA/PEI complexes. • During the incubation, HEK293 cells were detached, counted and re-suspended in culture medium (composition specified above). • At the end of the incubation period, the DNA/PEI mixture was added to the cells. • Cells were finally distributed in 96-well plates (White Opaque 96-well/Microplates, Greiner, cat #655083 or CulturPlate-96, White Opaque 96-well Microplate, PerkinElmer, cat #6005688) at a density of 30,000 cells per well.
(§7) At 48 hours post-transfection: • Using 450-Select TS Biotek plate washer, culture medium was aspirated and replaced with 100 μL of Hank's Balanced Salt Solution buffer (HBSS) (Wisent, cat #319-067CL: without red phenol; with sodium bicarbonate, with calcium and magnesium, with HEPES) per well. • Plates were then incubated (equilibrated) at 37° C., 5% CO2 for 60 minutes. • Increasing doses of test compounds were then added to each well using the HP D300e digital dispenser (Tecan). All compounds were assayed at the following 12 concentrations (in nM) with each biosensor: 0.000, 0.013, 0.040, 0.120, 0.320, 0.960, 2.80, 8.00, 24.0, 70.0, 205 and 600. • Three to 5 minutes later, an assay-specific effective concentration (EC)75-80 of agonist CP55,940 (i.e., 0.1 nM and 100 nM for G[…]i2-GAPL or […]Arrestin2 (+GRK2) assay, respectively) was added to wells previously injected with test compound (i.e., previous step 3). […]
(In general: In BRET a luciferase serves as donor, and the signal depends on an acceptor being close.)

Experiment [2] has as its target T1, human CB1 receptor. The experiment can be described thus: bioSensAll β-arrestin2 plasma membrane translocation (+GRK2) BRET biosensor assay in HEK293 cells transfected with hCB1; test compound added before EC75-80 of agonist CP55,940 (100 nM). Particulars: βArrestin2 (+GRK2) BRET biosensor, vs CP55,940 100 nM (EC75-80), read-out: CB1 wt βarr2 IC50. The class given is cell-based. How it is done: as §1, §2, §3
ii) The multimolecular β-arrestin membrane recruitment biosensors allow for real-time spatio-temporal monitoring of β-arrestin 1 and β-arrestin 2 following GPCR activation. Specifically, these β-arrestin sensors were designed to detect the recruitment of proteins to the plasma membrane (β-arrestin PM) with localization to compartment resulting in an increased BRET signal.
as §4, §5, §6, §7

Molecules are shown by their SMILES.

T1 sequence (P21554 whole entry): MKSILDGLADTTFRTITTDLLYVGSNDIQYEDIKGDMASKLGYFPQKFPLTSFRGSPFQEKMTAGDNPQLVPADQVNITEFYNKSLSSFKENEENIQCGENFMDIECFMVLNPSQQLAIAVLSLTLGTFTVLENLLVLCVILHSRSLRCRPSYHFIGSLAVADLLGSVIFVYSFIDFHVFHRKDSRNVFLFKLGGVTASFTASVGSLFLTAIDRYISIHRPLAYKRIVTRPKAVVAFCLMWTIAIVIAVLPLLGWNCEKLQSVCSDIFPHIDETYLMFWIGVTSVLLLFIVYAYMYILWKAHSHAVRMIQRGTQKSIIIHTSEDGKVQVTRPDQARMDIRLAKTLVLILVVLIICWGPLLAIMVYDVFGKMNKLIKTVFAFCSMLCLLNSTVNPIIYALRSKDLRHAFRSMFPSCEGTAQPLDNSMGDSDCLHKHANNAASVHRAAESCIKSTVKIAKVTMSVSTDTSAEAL

Regarding `CC(CO)Oc1nc(N2CCC(C)(C(N)=O)CC2)c2nc(-c3ccccc3Cl)n(-c3ccc(Cl)cc3)c2n1` (single isomer, unassigned) [Compound 7, 1-[8-(2-chlorophenyl)-9-(4-chlorophenyl)-2-(2-hydroxy-1-methyl-ethoxy)purin-6-yl]-4-methyl-piperidine-4-carboxamide], the IC50 at human CB1 receptor [1] amounted to 0.417 nM; on human CB1 receptor [2], 3.45 nM.
In the case of `CC(O)COc1nc(N2CCC(C)(C(N)=O)CC2)c2nc(-c3ccccc3Cl)n(-c3ccc(Cl)cc3)c2n1` (single isomer, unassigned) [Compound 8, 1-[8-(2-chlorophenyl)-9-(4-chlorophenyl)-2-(2-hydroxypropoxy)purin-6-yl]-4-methyl-piperidine-4-carboxamide], the IC50 came out at 0.922 nM at human CB1 receptor [1] and 2.74 nM on human CB1 receptor [2].
In the same order, the values of `CC(CO)Oc1nc(N2CCC(C(F)(F)F)CC2)c2nc(-c3ccccc3Cl)n(-c3ccc(Cl)cc3)c2n1` (single isomer, unassigned) [Compound 24, 2-[8-(2-chlorophenyl)-9-(4-chlorophenyl)-6-[4-(trifluoromethyl)-1-piperidyl]purin-2-yl]oxypropan-1-01] are 0.707 nM and 1.91 nM.
In the same order, the values of `CC(O)COc1nc(N2CCC(C(F)(F)F)CC2)c2nc(-c3ccccc3Cl)n(-c3ccc(Cl)cc3)c2n1` (single isomer, unassigned) [Compound 25, 1-[8-(2-chlorophenyl)-9-(4-chlorophenyl)-6-[4-(trifluoromethyl)-1-piperidyl]purin-2-yl]oxypropan-2-ol] are 0.706 nM and 2.06 nM.
Regarding `CCOC1(C(N)=O)CCCN(c2nc(OCC(C)(C)O)nc3c2nc(-c2ccccc2Cl)n3-c2ccc(Cl)cc2)C1` (single isomer, unassigned) [Compound 216], the results for the IC50 on human CB1 receptor [1] and at human CB1 receptor [2] were 1.77 nM and 8.61 nM, respectively.
On to `CCOC1(C(N)=O)CCCN(c2nc(OCC(C)(C)O)nc3c2nc(-c2ccccc2Cl)n3-c2ccc(Cl)cc2)C1` (single isomer, unassigned) [Compound 217], for which the figures for the IC50 on human CB1 receptor [1] and at human CB1 receptor [2] were 27 nM and 73.7 nM, respectively.
For `CC(C)C(=O)Nc1nc(N2CCC(C)(C(N)=O)CC2)c2nc(-c3ccccc3Cl)n(-c3ccc(Cl)cc3)c2n1` [Compound 1, 1-[8-(2-chlorophenyl)-9-(4-chlorophenyl)-2-(2-methylpropanoylamino)purin-6-yl]-4-methyl-piperidine-4-carboxamide], the IC50 at human CB1 receptor [1] stood at 4.3 nM; on human CB1 receptor [2] it was 15.2 nM.
Turning to `CN(C)C(=O)c1nc(N2CCC(C)(C(N)=O)CC2)c2nc(-c3ccccc3Cl)n(-c3ccc(Cl)cc3)c2n1` [Compound 2, 6-(4-carbamoyl-4-methyl-1-piperidyl)-8-(2-chlorophenyl)-9-(4-chlorophenyl)-N,N-dimethyl-purine-2-carboxamide], the IC50 on human CB1 receptor [1] came out at 10.5 nM; at human CB1 receptor [2] it was 63.5 nM.
Consider `Cc1cnn(-c2nc(N3CCC(C)(C(N)=O)CC3)c3nc(-c4ccccc4Cl)n(-c4ccc(Cl)cc4)c3n2)c1` [Compound 3, 1-[8-(2-chlorophenyl)-9-(4-chlorophenyl)-2-(4-methylpyrazol-1-yl)purin-6-yl]-4-methyl-piperidine-4-carboxamide], for which the values for the half-inhibitory concentration (IC50) on human CB1 receptor [1] and on human CB1 receptor [2] were 1.38 nM and 12.2 nM, respectively.
For `Cc1ccn(-c2nc(N3CCC(C)(C(N)=O)CC3)c3nc(-c4ccccc4Cl)n(-c4ccc(Cl)cc4)c3n2)n1` [Compound 4, 1-[8-(2-chlorophenyl)-9-(4-chlorophenyl)-2-(3-methylpyrazol-1-yl)purin-6-yl]-4-methyl-piperidine-4-carboxamide], in that order: 2.03 nM and 10.4 nM.
For the compound `CC1(C(N)=O)CCN(c2nc(N3CCNC[C@H]3CO)nc3c2nc(-c2ccccc2Cl)n3-c2ccc(Cl)cc2)CC1` [Compound 5, 1-[8-(2-chlorophenyl)-9-(4-chlorophenyl)-2-[(2S)-2-(hydroxymethyl)piperazin-1-yl]purin-6-yl]-4-methyl-piperidine-4-carboxamide], the 50% inhibitory concentration (IC50) on human CB1 receptor [1] is 0.961 nM; at human CB1 receptor [2], 16 nM.
In the same order, the values of `CC1(C(N)=O)CCN(c2nc(OCCCO)nc3c2nc(-c2ccccc2Cl)n3-c2ccc(Cl)cc2)CC1` [Compound 6, 1-[8-(2-chlorophenyl)-9-(4-chlorophenyl)-2-(3-hydroxypropoxy)purin-6-yl]-4-methyl-piperidine-4-carboxamide] are 0.861 nM and 4.78 nM.
Take `CN(CP(C)(C)=O)c1nc(N2CCC(C)(C(N)=O)CC2)c2nc(-c3ccccc3Cl)n(-c3ccc(Cl)cc3)c2n1` [Compound 71, 1-[8-(2-chlorophenyl)-9-(4-chlorophenyl)-2-[dimethylphosphorylmethyl(methyl)amino]purin-6-yl]-4-methyl-piperidine-4-carboxamide]: at human CB1 receptor [1], the IC50 was 9.05 nM.
For `CC(C)(O)COc1nc(NCCO)c2nc(-c3ccccc3Cl)n(-c3ccc(Cl)cc3)c2n1` [Compound 98], at human CB1 receptor [2], the IC50 is > 5000 nM.
`Cc1nc(C#N)ccc1-c1nc2c(N3CCC(C)(C(N)=O)CC3)nc(OCC(C)(C)O)nc2n1-c1ccc(Cl)cc1` [Compound 107, 1-[9-(4-chlorophenyl)-8-(6-cyano-2-methyl-3-pyridyl)-2-(2-hydroxy-2-methyl-propoxy)purin-6-yl]-4-methyl-piperidine-4-carboxamide]: the half-inhibitory concentration (IC50) on human CB1 receptor [1] came out at 27.7 nM.
As for `CC(C)(O)COc1nc(N2CCC(C)(C(=O)O)CC2)c2nc(-c3ccc(C#N)nc3)n(-c3ccc(Cl)cc3)c2n1` [Compound 118, 1-[9-(4-chlorophenyl)-8-(6-cyano-3-pyridyl)-2-(2-hydroxy-2-methyl-propoxy)purin-6-yl]-4-methyl-piperidine-4-carboxylic acid], the IC50 at human CB1 receptor [2] is > 5000 nM.
In the case of `Cc1cnccc1-c1nc2c(N3CCC(C)(C(N)=O)CC3)nc(OCC(C)(C)O)nc2n1-c1ccc(Cl)cc1` [Compound 122, 1-[9-(4-chlorophenyl)-2-(2-hydroxy-2-methyl-propoxy)-8-(3-methyl-4-pyridyl)purin-6-yl]-4-methyl-piperidine-4-carboxamide], the 50% inhibitory concentration (IC50) at human CB1 receptor [1] amounted to 14.6 nM.
The same measure, in the same setting: the figure for `CN(CC(C)(C)O)c1nc(N2CC(C(N)=O)C2)c2nc(-c3ccc(C#N)nc3)n(-c3ccc(Cl)cc3)c2n1` [Compound 129] is 438 nM.
Consider `NC(=O)N1CC(Nc2nc(N3CCC[C@H]3CO)nc3c2nc(-c2ccccc2Cl)n3-c2ccc(Cl)cc2)C1` [Compound 175], for which, on human CB1 receptor [1], the half-inhibitory concentration (IC50) worked out at 5.3 nM.
For the compound `CCOC1(C(=O)O)CCN(c2nc(OCC(C)(C)O)nc3c2nc(-c2ccccc2Cl)n3-c2ccc(Cl)cc2)CC1` [Compound 218], at human CB1 receptor [1], the IC50 came out at 7.82 nM.
Same read-out and setting: the figure for `CC(C)(O)COc1nc(N2CCNCC2)c2nc(-c3ccccc3Cl)n(-c3ccc(Cl)cc3)c2n1` [Compound 219] is 59.7 nM; for `CC(C)(O)COc1nc(N2CC(C(N)=O)C2)c2nc(-c3ccccc3Cl)n(-c3ccc(Cl)cc3)c2n1` [Compound 238] it is 13.8 nM; for `CC(=O)NC1(C)CN(c2nc(OCC(C)(C)OP(=O)(O)O)nc3c2nc(-c2ccccc2Cl)n3-c2ccc(Cl)cc2)C1` [Compound 239, 1-((6-(3-acetamido-3-methylazetidin-1-yl)-8-(2-chlorophenyl)-9-(4-chlorophenyl)-9H-purin-2-yl)oxy)-2-methylpropan-2-yl dihydrogen phosphate] it is 27.4 nM.

Usually IC50 stands for the midpoint of a concentration-inhibition curve.
